Entries after “also recorded” stand apart in the source; their conditions may differ. Where two headings read alike, the source gives them in different places. Ends that are not written are not given here.

The text below walks through data of patent US9056081B2, “Compositions for treating pseudomonas infection” (Universitätsklinikum Hamburg-Eppendorf, priority 2009, dated 2015).

The target in data set [1] is T1, PA-IIL (Pseudomonas aeruginosa, UniProt Q9HYN5). Put plainly: cell-based. It is filed as cell-based. The method, then: (§1) Experiments were carried out on human nasal conchae, obtained during routine surgery from the ENT Hospital of the University Medical Center Hamburg-Eppendorf, Hamburg, Germany. For the measurement of CBF, small pieces of nasal mucosa were punched out of the nasal conchae by a special biopsy punch (Stiefel Laboratorium GmbH, Offenbach, Germany) (4-6 pieces per nasal conchae) and transferred to Petri dishes (Greiner Bio-One, Kremsmünster, Austria) containing RPMI-1640 and L-Glutamine medium (Gibco, Karlsruhe, Germany) supplemented with 10% fetal calf serum (Gibco, Karlsruhe, Germany), 1% Penicillin-Streptomycin (10 000 U/ml, Gibco, Karlsruhe, Germany) and 0.9% Amphotericin B (250 UG/ml, Gibco, Karlsruhe, Germany) as a fungicide. The specimens were maintained under standard cell culture conditions at 37° C. in 5% CO2 for up to two weeks.
T1 sequence (Q9HYN5 entry or part of it): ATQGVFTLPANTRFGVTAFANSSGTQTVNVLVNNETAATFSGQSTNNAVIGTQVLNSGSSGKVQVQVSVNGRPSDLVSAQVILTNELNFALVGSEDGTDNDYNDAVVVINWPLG
(§2) The aim of this experiment was to compare the efficiency of different sugar solutions and peptides to block PA-IL and PA-IIL binding to cilia in tissue sections and in vitro airway cultures by measuring their ciliary beat frequency (CBF). Actively beating ciliated cells were viewed trough phase-contrast optics of a Leica DM IRB HC inverted microscope (Leica, Bensheim, Germany) placed on a Micro-g vibration isolation table (TMC, Peabody, Mass.). During the experiments, the cultured tissue samples were maintained at a constant temperature (35±0.5° C.) by a thermostatically controlled heated stage. The signals were measured and analysed by a computer system incorporating a special purpose MPV-CBF software (Software-Entwicklung Radmann, Solms, Germany). The CBF was calculated by collecting data from 512 readings (10 s) and by performing Fourier analysis (Mewe et al. 2005). Five of these Fourier transforms taken per nasal conchae piece were measured.
(§3) The influence of monosaccharides and several peptides (obtained from Centre for Molecular Neurobiology, Hamburg, Germany) alone and in combination with PA-IL or PA-IIL on CBF was also investigated. The monosaccharides (0.2 M) and peptides (0.968 mM) were pre-incubated with 10 μg/ml PA-IL and 10 μg/ml PA-IIL, respectively, for 30 min at room temperature, at which they were agitated the for whole time and then added to the medium and the CBF was monitored over a 24 h period. Measurement was carried out after 0, 1, 2, 3, 5, 8, 24 h incubation. Negative controls were maintained in medium with no additions made. Positive controls were maintained in medium with PA-IL or PA-IIL, respectively.
For CBF analysis monosaccharides (D-galactose and L(−)-fucose) and peptides were pre-incubated with PA-IIL and the CBF was determined.

The nature of data set [2]: Storage stability of monosaccharide solutions (data not shown). The data set is classed as physicochemical. The settings on record: stored at room temperature or at 4° C. dissolved in an aqueous solution.
A further data set deals with PA-IL (Pseudomonas aeruginosa, UniProt Q05097). In words: cell-based. The data set is classed as cell-based. Here is the method: as §1, §2
Chain of PA-IL (Q05097 whole entry): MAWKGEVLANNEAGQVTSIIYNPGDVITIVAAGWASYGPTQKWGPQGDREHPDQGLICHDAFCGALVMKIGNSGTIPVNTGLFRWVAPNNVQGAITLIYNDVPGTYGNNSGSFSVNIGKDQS
as §3, with “([…])” for “(0.2 M) and peptides (0.968 mM)”
In CBF analysis, the influence of monosaccharides (D-galactose and L(−)-fucose) and the HNK-1 mimetic peptide pHNK-1 alone and in combination with PA-IL on CBF was investigated.

Another data set deals with human airway cilia. Put plainly: Ciliary beat frequency (CBF) of human nasal mucosa, substances alone without lectin. The data set is classed as cell-based. The settings on record: no lectin, over 24 h; for effect on the ciliary beat frequency (CBF), monosaccharide alone: 0.2 M monosaccharide.
Data set [3] addresses T1, PA-IIL. It is filed as cell-based. The conditions noted are these: 0.121-0.484 mM peptide co-incubated with 10 μg/ml PA-IIL, 24 h.
A further data set deals with PA-IL and PA-IIL. In words: CBF assay: simultaneous application of PA-IL and PA-IIL. The data set is classed as cell-based, Pseudomonas aeruginosa. Here is the method: Experiments were carried out on human nasal conchae, obtained during routine surgery from the ENT Hospital of the University Medical Center Hamburg-Eppendorf, Hamburg, Germany. […]
The aim of this experiment was to compare the efficiency of different sugar solutions and peptides to block PA-IL and PA-IIL binding to cilia in tissue sections and in vitro airway cultures by measuring their ciliary beat frequency (CBF). […] The signals were measured and analysed by a computer system incorporating a special purpose MPV-CBF software (Software-Entwicklung Radmann, Solms, Germany). The CBF was calculated by collecting data from 512 readings (10 s) and by performing Fourier analysis (Mewe et al. 2005). Five of these Fourier transforms taken per nasal conchae piece were measured.
The influence of monosaccharides and several peptides (obtained from Centre for Molecular Neurobiology, Hamburg, Germany) alone and in combination with PA-IL or PA-IIL on CBF was also investigated. The monosaccharides (0.2 M) and peptides (0.968 mM) were pre-incubated with 10 μg/ml PA-IL and 10 μg/ml PA-IIL, respectively, for 30 min at room temperature, at which they were agitated the for whole time and then added to the medium and the CBF was monitored over a 24 h period. […]

[4] abbreviates: 0.2 M monosaccharide co-incubated with 10 μg/ml PA-IIL, 24 h.
The mark [5] stands for this setting: 0.2 M monosaccharide co-incubated with 10 μg/ml PA-IL, 24 h.
The mark [6] stands for this setting: 0.121 mM peptide co-incubated with 10 μg/ml PA-IL, 24 h.
Setting [7] is: 0.242 mM peptide co-incubated with 10 μg/ml PA-IL, 24 h.

For `O=C[C@H](O)[C@@H](O)[C@@H](O)[C@H](O)CO` [D-galactose, reference compound], the “effect on the CBF-decreasing effect of PA-IIL” value at PA-IIL [1] (setting [4]) is reported as “no inhibition could be achieved; also recorded: resulted in a decline of the CBF within 24 h; also recorded: did not inhibit”. In addition, the “stability and inhibitory potency of the solution on storage” value in data set [2] was “not stable and loose their inhibitory potency”. Besides, the “effect on the CBF-decreasing effect of PA-IL” value at PA-IL (setting [5]) is given as “reduced the CBF-decreasing effect of the PA lectin; also recorded: could be effectively reduced”. In the data set with human airway cilia, the “effect on the ciliary beat frequency (CBF), monosaccharide alone” value is “had no effect on the CBF”.
On to `C[C@H](O)[C@@H](O)[C@@H](O)[C@H](O)C=O` [L(−)-fucose, reference compound], for which the “effect on the CBF-decreasing effect of PA-IIL” value at PA-IIL [1] (setting [4]) is on record as “could be reduced; also recorded: reduced the CBF-decreasing effect of the PA lectin”. Besides, the “stability and inhibitory potency of the solution on storage” value in data set [2] was “not stable and loose their inhibitory potency”. The “effect on the CBF-decreasing effect of PA-IL” value at PA-IL (setting [5]) is “resulted in a continuous decrease of the CBF within 24 h; also recorded: did not inhibit”. In addition, the “effect on the ciliary beat frequency (CBF), monosaccharide alone” value in the data set on human airway cilia was “had no effect on the CBF”.
In the case of FLHTRLFV [pHNK-1], the “effect on the CBF-decreasing effect of PA-IIL” value on PA-IIL [3] is “resulted in a continuous decrease of the CBF within 24 h”; on PA-IIL [1], “inhibited the CBF-decreasing effect of PA-IIL; also recorded: reduced the CBF-decreasing effect of the PA lectin; also recorded: blocked”. Further, the half-inhibitory concentration (IC50) on PA-IIL [1] was found to be 968 µM; on PA-IL it was 484 µM. For the same molecule, the “effect on the CBF-decreasing effect of PA-IL” value on PA-IL was “blocked the CBF-decreasing effect of PA-IL; also recorded: reduced the CBF-decreasing effect of the PA lectin; also recorded: could be reduced”; on PA-IL (setting [6]) it was “resulted in a continuous decrease of the CBF within 24 h”; at PA-IL (setting [7]), “resulted in a continuous decrease of the CBF within 24 h”. For the same molecule, in the data set on PA-IL and PA-IIL, the “effect on the decrease of CBF after simultaneous application of PA-IL and PA-IIL” value is reported as “caused an inhibition of lectin induced suppression of CBF; also recorded: could be inhibited”. In addition, the “effect on the ciliary beat frequency (CBF), peptide alone” value in the data set with human airway cilia (0.968 mM peptide) is listed as “had no effect on the CBF”.
With TVFHFRLL [sHNK-1], the “effect on the CBF-decreasing effect of PA-IIL” value at PA-IIL [1] was “resulted in a continuous decrease of the CBF within 24 h; also recorded: none of the other tested peptides (sHNK-1, pLeX, sLeX) had any consequence; also recorded: had no effect”. The “effect on the CBF-decreasing effect of PA-IL” value on PA-IL was “also reduced the CBF-decreasing effect of PA-IL; also recorded: reduced the CBF-decreasing effect of the PA lectin; also recorded: resulted in a continuous decrease of the CBF within 24 h”; on PA-IL (setting [6]) it was “resulted in a continuous decrease of the CBF within 24 h”; on PA-IL (setting [7]) it was “resulted in a continuous decrease of the CBF within 24 h”; at PA-IL (listed as scrambled version of the peptide pHNK-1), “also reduced the CBF-decreasing effect of PA-IL”.
